Experimental findings from PubChem BioAssay AID2305 (GlaxoSmithKline (GSK), 2010) are described below.

In the assay the test system is P. falciparum 3D7 growth, pLDH absorbance. Put plainly: P. falciparum 3D7 growth inhibition, dose response, strain 3D7 (AID 2305).

As usually defined, the IC50 is the concentration that gives 50% inhibition. In the case of `CCCN1CCN(CC(O)CNC(=O)Nc2ccc(Br)cc2)CC1` (stereo not drawn), the 50% inhibitory concentration (IC50) is 60 nM.
The figure for `CN(C)CCOc1ccc2[nH]c(-c3cccc(OCc4ccccc4)c3)nc2c1C#N` is 260 nM; for `Cc1nnc2c(NC(=O)NC3CCCC3)cc3ccc(-c4cccc(CN(C)C)c4)cc3n12` it is 1160 nM; for `C=C[C@H]1CN2CC[C@H]1C[C@@H]2[C@@H](O)c1ccnc2ccc(OC)cc12` it is 120 nM.
As to `Cc1ccc(S(C)(=O)=O)cc1/C=C/C(=O)O`, the IC50 is 870 nM.
With `O=C1NC(c2ccccc2)C2(CCN(CC(O)COc3cccc4ncccc34)CC2)O1` (stereo not drawn) the figure was 740 nM; with `O=C(C=Cc1cc([N+](=O)[O-])ccc1Cl)N1CCC(CCN2CCC(c3c[nH]c4ccccc34)CC2)CC1`, 740 nM; with `NC1=NC(CCc2ccccc2)N(c2ccccc2)C(N)=N1` (stereo not drawn), 80 nM.
Regarding `CC1CCc2sc(-c3nnc(SC(C)C(=O)NC4CC4)o3)cc2C1` (stereo not drawn), the IC50 came to 1210 nM.
As for `CCCCCCCCCc1c(C)[nH]c2ccccc2c1=O`, the IC50 turned out to be 160 nM.
The figure for `Cc1cccc2[nH]c(-c3ccc(-c4ccc(NC(=O)Nc5ccsc5)cc4)cc3)nc12` is 170 nM.
Turning to `COc1ccc(NC(=O)CSc2nc(-c3ccccc3Cl)ns2)cc1OC`, the IC50 amounted to 760 nM.
`CC(C)CCNC(=O)C1Cc2c([nH]c3cc(Br)ccc23)C2(CCN(Cc3ccccc3)CC2)N1` (stereo not drawn) had a 50% inhibitory concentration (IC50) of 790 nM.
`COc1ccc2nccc([C@@H](O)CN3CCC(NCCOc4cccc(C(F)(F)F)c4)CC3)c2c1` displayed an IC50 of 160 nM.
The figure for `CC1CN(Cc2csc(Nc3ccccc3)n2)CC(C)O1` (stereo not drawn) is 1020 nM; for `COc1ccc(NC(=O)[C@H](CC(C)C)Nc2ccnc(NCCc3ccc(F)cc3)n2)cc1` it is 1600 nM.
The figure for `CCc1c(C)nc(-n2nc(C)cc2NC(=O)C2c3ccccc3Oc3ccccc32)[nH]c1=O` is 950 nM; for `CSc1nc2nc(C)c(Cc3cccc(C(F)(F)F)c3)c(C)n2n1` it is 190 nM.
The figure for `CC1CCC(C[C@@H](C(=O)N[C@@H](CCC(=O)N2CCCCC2)C(=O)Nc2nccs2)[C@H](C(C)C)N(O)C=O)CC1` (stereo partly drawn) is 620 nM; for `Cc1[nH]c(C)c(-c2ccc(-c3ccc(F)cc3)nc2)c(=O)c1Br` it is 250 nM; for `CCCCCCCCCCN1C(=O)C2C(CCCCNC(C)=O)NC3(C(=O)N(Cc4ccc(C(C)(C)C)cc4)c4ccccc43)C2C1=O` (stereo not drawn) it is 990 nM.
In turn, `COc1ccc2nccc(N3CCC(CCNCc4ccc5c(n4)NC(=O)CS5)CC3)c2n1` registered an IC50 of 230 nM.
With `Cc1ccc(CC(C)NCC(O)c2cccc(Cl)c2)cc1F` (stereo not drawn) the figure was 740 nM; with `CC(C)N1CCN(C(CN2CCN(CCCOc3ccc4nonc4c3)CC2)c2ccc(F)cc2)CC1` (stereo not drawn), 800 nM.
The figure for `CC1CCN(CC[C@H]2CCCN2S(=O)(=O)c2cccc(NC(=O)c3ccc(-c4ccccc4)cc3)c2)CC1` is 1260 nM.
`Cc1c(CCC#N)c(NCc2ccccc2)n2c(nc3ccccc32)c1C#N` returned a half-inhibitory concentration (IC50) of 880 nM.
Take `c1ccc(Oc2ccc(Nc3ccnc(Nc4cccc(CNCCCN5CCOCC5)c4)n3)cc2)cc1`: the IC50 amounted to 1040 nM.
In turn, `Cc1cccc2[nH]c(-c3cccc(-c4cccc(NC(=O)c5ccc(=O)[nH]n5)c4)c3)nc12` came in with a 50% inhibitory concentration (IC50) of 790 nM.
`FC(F)(F)c1cccc(-c2cc(NCCCn3ccnc3)nc(-c3ccncc3)n2)c1` had a half-inhibitory concentration (IC50) of 110 nM.
The figure for `COc1cc(C)ccc1N1CCN(CCCCNC(=O)c2ccc(NC(=O)c3ccc(Cl)cc3)cc2)CC1` is 700 nM; for `CC(C)N1CCC(N(Cc2ccc(-c3ccc(C(F)(F)F)cc3)cc2)C(=O)Cn2c(SCc3cccc(F)c3F)cc(=O)c3c2CCC3)CC1` it is 1160 nM; for `CCOc1ccc(NC(=O)c2ccc(NCCCN3CC(C)CC(C)C3)c([N+](=O)[O-])c2)cc1` (stereo not drawn) it is 710 nM.
Take `O=C(NCCCCN1CCC(C(c2ccccc2)c2ccccc2)CC1)c1ccc(NC(=O)c2ccc(Cl)cc2)cc1`: the IC50 was found to be 770 nM.
In the case of `Cc1cc(CNC(=O)c2ccc(-c3ccc(-c4nc5ccc(C(F)(F)F)cc5[nH]4)s3)cc2)on1`, the IC50 worked out at 730 nM.
The figure for `Cc1ccccc1N1CCN(c2ccc(C(=O)NC(C)C)cn2)CC1` is 900 nM.
With `Cc1ccc(NC(=O)c2ccc(CN3CCCN(CC4CCCCC4)CC3)cc2)cc1` the figure was 800 nM.
The figure for `Cc1ccc2ncc(Cl)c(CCN3CCC(NCc4ccc5c(n4)NC(=O)CS5)CC3)c2n1` is 1100 nM.
Molecule `COc1ccccc1OCCN(CC(O)COc1cccc2[nH]c3ccccc3c12)CC(O)COc1cccc2[nH]c3ccccc3c12` (stereo not drawn) came in with an IC50 of 640 nM.
In the case of `CCOc1ccc2c(NN=Cc3cccc(OC)c3OC)cc(C)nc2c1`, the half-maximal inhibitory concentration (IC50) came out at 900 nM.
With `Cc1cc(C)cc(Oc2c(C(F)(F)F)oc3c(CN4CC(C)OC(C)C4)c(O)ccc3c2=O)c1` (stereo not drawn) the figure was 940 nM.
With `CCCCOc1ccc(C(=O)C(CCC(CNC(C)(C)C)C(=O)c2ccc(OCCCC)cc2)CNC(C)(C)C)cc1` (stereo not drawn) the figure was 1020 nM.
With `Nc1nc2c(cnn2CCCCCCCP(=O)(O)O)c(=O)[nH]1` the figure was 470 nM; with `O=C(NC1CCN(Cc2ccccc2)CC1)c1ccc(-c2nc3cc(F)c(F)cc3[nH]2)s1`, 830 nM; with `Cc1cc(N[C@@H](CC(C)C)C(=O)NCCOc2ccccc2)nc(NCC2CCCCC2)n1`, 970 nM.
Turning to `NC[C@H](CC1CCCCC1)NC(=O)c1ccc(-c2ccnc3[nH]ccc23)s1`, the half-inhibitory concentration (IC50) came out at 950 nM.
The figure for `Cc1cc(N(C)C)nc(Nc2ccc(NC(=O)Nc3ccccc3)cc2)n1` is 130 nM; for `c1ccc2[nH]c(-c3ccc(-c4ccc(CN5CCCCC5)cc4)cc3)nc2c1` it is 750 nM.
On to `CC(=O)Nc1nc(N)c2c(ccc3c2ccn3CC(C)C)n1`, for which the IC50 turned out to be 70 nM.
With `Cc1cccc2[nH]c(-c3ccc(-c4ccc(CNCC5CCCO5)cc4)cc3)nc12` (stereo not drawn) the figure was 680 nM.
With `Cc1cc2ncc(C(N)=O)c(Nc3ccc(N4CCOCC4)cc3)c2cc1S(C)(=O)=O` the figure was 670 nM; with `N#Cc1cccc(C(=O)NC2CCN(c3ccnc(Nc4ccc(F)cc4)n3)C2)c1` (stereo not drawn), 400 nM; with `CCn1c2ccccc2c2cc(C=NNc3cc(C)nc4ccccc34)ccc21`, 310 nM.
The molecule `COc1ccc2ncc(C#N)c(CCN3C[C@H](CNCc4ccccc4)[C@H](O)C3)c2n1` gave a 50% inhibitory concentration (IC50) of 1060 nM.
`O=C(NC1CCN(Cc2ccc(Cl)cc2)CC1)c1cn(-c2ccccc2)nc1-c1cccnc1` came in with an IC50 of 970 nM.
The figure for `COc1cc(OC)cc(-c2nn(-c3ccc([N+](=O)[O-])cc3Cl)c(=S)n2CC2CCCO2)c1` (stereo not drawn) is 960 nM; for `O=S(=O)(Nc1cccc(CCN2CCCCC2CCN2CCCC2)c1)c1ccc2ccccc2c1` (stereo not drawn) it is 1070 nM.
The figure for `O=C(CCCCCNC(=O)c1ccc(O)c(-c2ccc(Cl)c(Cl)c2)c1)NCc1cccc2ccccc12` is 760 nM; for `CCOC(=O)c1[nH]c2cc(Cl)cc(Cl)c2c1/C=C/C(=O)Nc1ccc(-c2cnc(NC(C)=O)[nH]2)cc1` it is 1020 nM; for `CCCCCCn1c2c(c(=N)c3c1CCC3)CCC2` it is 180 nM.
The figure for `Cc1cc(N(C)C)nc(Nc2ccc(NC(=O)c3ccccc3C)cc2)n1` is 1130 nM.
In turn, `CCCCCCCN(Cc1ccc(OC(C)(C)C(=O)OCC)cc1)C(=O)Nc1ccccc1OCC` registered an IC50 of 1030 nM.
With `O=C(Nc1cccc(OC2CCN(Cc3ccccc3)CC2)c1)Nc1cccc([N+](=O)[O-])c1` the figure was 780 nM; with `Cc1csc(-c2nc(NCCc3c(C)noc3C)ncc2-c2ccsc2)n1`, 180 nM.
